Results taken from ChEMBL document CHEMBL1125732, “Synthesis and benzodiazepine binding activity of a series of novel [1,2,4]triazolo[1,5-c]quinazolin-5(6H)-ones” (J Med Chem, 1991).

Legend:
[1] = target: GABA-A receptor; anion channel; test: Binding affinity at Benzodiazepine receptor of rat forebrain by [3H]- flunitrazepam displacement.
[2] = target: T1, GABA-A receptor; anion channel (Mus musculus) (UniProt Q8BHJ7+P26048+Q8QZW7+P50571+Q9R0Y8+P22723+A2AMW3+P62812+Q9JLF1+P26049+P22933+Q9D6F4+P63080+P27681+P16305); test: In vivo percentage inhibition of flunitrazepam binding to Benzodiazepine receptor in mouse fore brain at 30 mg/Kg.; type: organism-based
[3] = target: GABA-A receptor; anion channel; test: Displacement of [3H]- Diazepam from GABA-A Benzodiazepine receptor of rat forebrain
Rattus norvegicus [4] = test: Antagonism of Diazepam anti-convulsive effects in rats treated with metrazole ip dose at 1 mg/kg, 2/6 rats affected; type: functional; details: route intraperitoneal
Rattus norvegicus [5] = test: Antagonism of diazepam-induced rotarod deficit on ip dose in rats; type: functional
Rattus norvegicus [6] = species: Rattus norvegicus; test: Antagonism of diazepam-induced discriminative stimuli in rats by peroral dose; type: functional; details: po
Rattus norvegicus [7] = test: Antagonism of Diazepam anti-convulsive effects in rats treated with metrazole ip dose at 3mg/kg, 2/6 rats affected; type: functional
Rattus norvegicus [8] = species: Rattus norvegicus; test: Antagonism of diazepam-induced rotarod deficit after peroral dose in rats; type: functional; details: po
Rattus norvegicus [9] = test: Antagonism of Diazepam anti-convulsive effects in rats treated with metrazole ip dose at 0.3mg/kg, 6/6 rats affected; type: functional
Rattus norvegicus [10] = test: Antagonism of Diazepam anti-convulsive effects in rats treated with metrazole ip dose at 10 mg/kg, 0/6 rats affected; type: functional; details: route intraperitoneal
Rattus norvegicus [11] = test: Antagonism of diazepam-induced discriminative stimuli in rats by ip dose; type: functional
Rattus norvegicus [12] = test: Antagonism of Diazepam anti-convulsive effects in rats treated with metrazole ip dose at 30 mg/kg, 0/6 rats affected; type: functional; details: route intraperitoneal
Rattus norvegicus [13] = test: Antagonism of Diazepam anti-convulsive effects in rats treated with metrazole ip dose at 1 mg/kg, 3/6 rats affected; type: functional; details: route intraperitoneal
[14] = target: GABA-A receptor; anion channel; test: Displacement of [3H]diazepam from GABA-A Benzodiazepine receptor of rat forebrain
Rattus norvegicus [15] = test: Antagonism of Diazepam anti-convulsive effects in rats treated with metrazole ip dose at 3mg/kg, 1/6 rats affected; type: functional
Rattus norvegicus [16] = test: Antagonism of Diazepam anti-convulsive effects in rats treated with metrazole ip dose at 20 mg/kg, 0/6 rats affected; type: functional; details: route intraperitoneal
Rattus norvegicus [17] = test: Antagonism of Diazepam anti-convulsive effects in rats treated with metrazole ip dose at 1 mg/kg, 5/6 rats affected; type: functional; details: route intraperitoneal
[18] = target: GABA-A receptor; anion channel; test: Displacement of [3H]flunitrazepam from GABA-A Benzodiazepine receptor of rat forebrain
[19] = target: T1, GABA-A receptor; anion channel (Mus musculus); details: 30 mg/kg
Description: In vivo percentage inhibition of flunitrazepam binding to mouse fore brain at 30 mg/kg

Rattus norvegicus [20] = species: Rattus norvegicus; test: Antagonism of diazepam-induced rotarod deficit on peroral dose in rats; type: functional; details: po
Rattus norvegicus [21] = test: Antagonism of Diazepam anti-convulsive effects in rats treated with metrazole ip dose at 1 mg/kg in rats, 1/6 rats affected; type: functional; details: route intraperitoneal
Rattus norvegicus [22] = test: Antagonism of Diazepam anti-convulsive effects in rats treated with metrazole ip dose at 0.3 mg/kg, 5/6 rats affected; type: functional; details: route intraperitoneal

Work on `Oc1nc2ccc(Cl)cc2c2nc(Cc3ccccc3)nn12` yielded an IC50 [1] of 100 nM and an inhibition [2] of 0%.

With `Oc1nc2ccccc2c2nc(-c3ccccc3)nn12` the IC50 [3] was 4 nM and the inhibition [2] was 55%.

Work on `Cn1c(=O)n2nc(-c3cccnc3)nc2c2ccccc21` yielded an IC50 [3] greater than 10000 nM.

`COc1ccc(-c2nc3c4cc(Cl)ccc4nc(O)n3n2)cc1` gave an IC50 [1] of 3 nM.

Work on `Oc1nc2ccc(Cl)cc2c2nc(-c3ccccc3F)nn12` yielded an Antagonist effect (Rattus norvegicus [4]) of 2, an ED50 (Rattus norvegicus [5]) of 6.92 mg/kg and an ED50 (Rattus norvegicus [6]) of 6.51 mg/kg. The Antagonist effect (Rattus norvegicus [7]) was 2, the ED50 (Rattus norvegicus [8]) was 5.5 mg/kg and the Antagonist effect (Rattus norvegicus [9]) was 6. The IC50 [1] was 0.4 nM, the Antagonist effect (Rattus norvegicus [10]) was 0 and the ED50 (Rattus norvegicus [11]) was 2.99 mg/kg. For the same molecule, the inhibition [2] was 76% and the Antagonist effect (Rattus norvegicus [12]) was 0.

For `Oc1nc2ccc(Cl)cc2c2nc(-c3ccccc3)nn12`, the ED50 (Rattus norvegicus [5]) was 26 mg/kg, the Antagonist effect (Rattus norvegicus [7]) was 2 and the ED50 (Rattus norvegicus [8]) was 2.8 mg/kg. The Antagonist effect (Rattus norvegicus [9]) was 6, the IC50 [1] was 8 nM and the Antagonist effect (Rattus norvegicus [10]) was 0. For the same molecule, the inhibition [2] was 72%, the Antagonist effect (Rattus norvegicus [12]) was 0 and the Antagonist effect (Rattus norvegicus [13]) was 3.

With `Oc1nc2ccc(Cl)cc2c2nc(-c3cccnc3)nn12` the IC50 [3] was 10 nM and the inhibition [2] was 24%.

`Oc1nc2ccc(Cl)cc2c2nc(-c3ccccn3)nn12` was tested, and the IC50 [3] was 100 nM.

`COc1cc(-c2nc3c4cc(Cl)ccc4nc(O)n3n2)cc(OC)c1OC` gave an IC50 [1] greater than 1000 nM.

Work on `CCOc1nc2c3ccccc3nc(O)n2n1` yielded an IC50 [1] of 2.5 nM and an inhibition [2] of 0%.

With `Cn1c(=O)n2nc(-c3ccccc3)nc2c2ccccc21` the IC50 [3] was 350 nM and the inhibition [2] was 55%.

In the case of `Oc1nc2ccc(Cl)cc2c2nc(-c3ccc(C(F)(F)F)cc3)nn12`, the IC50 [1] is reported as greater than 1000 nM.

`CN1C(=O)CN=C(c2ccccc2F)c2cc([N+](=O)[O-])ccc21` [FLUNITRAZEPAM] showed an IC50 [14] of 1.5 nM.

Molecule `Oc1nc2ccccc2c2nc(-c3ccc(Cl)cc3)nn12` has an IC50 [3] greater than 10000 nM.

In the case of `O=c1[nH]c2ccccc2c2nc(-c3ccncc3)nn12`, the IC50 [3] is reported as 200 nM.

With `Oc1nc2ccccc2c2nc(-c3ccccc3F)nn12` the IC50 [1] was 0.4 nM and the inhibition [2] was 41%.

For `Oc1nc2ccccc2c2nc(-c3cccnc3)nn12`, the IC50 [3] was 130 nM and the inhibition [2] was 48%.

`CN1CCCC(c2nc3c4cc(Cl)ccc4nc(O)n3n2)C1` (centres undefined) showed an IC50 [1] greater than 1000 nM.

Molecule `Oc1nc2ccccc2c2nc(-c3ccncc3)nn12` has an inhibition [2] of 19%.

Molecule `OCc1nc2c3ccccc3nc(O)n2n1` has an IC50 [1] greater than 100 nM and an inhibition [2] of 0%.

For `O=C1C2C=Nc3ccccc3C2=NN1c1ccccc1` (centres undefined) [CGS-8216], the ED50 (Rattus norvegicus [6]) was 1.61 mg/kg, the IC50 [14] was 0.3 nM and the Antagonist effect (Rattus norvegicus [15]) was 1. The Antagonist effect (Rattus norvegicus [16]) was 0, the Antagonist effect (Rattus norvegicus [17]) was 5 and the IC50 [18] was 4.4 nM. It also gave an inhibition [19] of 90%, an Antagonist effect (Rattus norvegicus [10]) of 0 and an ED50 (Rattus norvegicus [20]) of 0.6 mg/kg.

`Oc1nc2ccc(Cl)cc2c2nc(-c3cccc(F)c3)nn12` showed an Antagonist effect (Rattus norvegicus [21]) of 1, an ED50 (Rattus norvegicus [5]) greater than 30 mg/kg and an Antagonist effect (Rattus norvegicus [7]) of 2. For the same molecule, the IC50 [1] was 4 nM, the Antagonist effect (Rattus norvegicus [10]) was 0 and the inhibition [2] was 31%. For the same molecule, the Antagonist effect (Rattus norvegicus [12]) was 0 and the Antagonist effect (Rattus norvegicus [22]) was 5.

For `Oc1nc2ccc(Cl)cc2c2nc(C3CCCO3)nn12` (centres undefined), the IC50 [1] was greater than 100 nM.

Molecule `Cn1c(=O)n2nc(C(F)(F)F)nc2c2ccccc21` has an IC50 [3] greater than 1000 nM.

For `Oc1nc2ccc(Cl)cc2c2nc(-c3ccoc3)nn12`, the IC50 [1] was 3.5 nM.

With `Oc1nc2ccc(Cl)cc2c2nc(-c3cccs3)nn12` the IC50 [1] was 0.6 nM and the inhibition [2] was 21%.

Work on `Oc1nc2c(Cl)cc(Cl)cc2c2nc(-c3ccccc3)nn12` yielded an IC50 [3] of 200 nM and an inhibition [2] of 6%.

`Oc1nc2ccc(Cl)cc2c2nc(-c3ccc(F)cc3)nn12` gave an IC50 [1] of 20 nM and an inhibition [2] of 52%.

`Oc1ccc(-c2nc3c4cc(Cl)ccc4nc(O)n3n2)cc1` gave an IC50 [1] of 0.3 nM and an inhibition [2] of 0%.

With `Cc1ccc(-c2nc3c4cc(Cl)ccc4nc(O)n3n2)cc1` the IC50 [1] was 200 nM and the inhibition [2] was 63%.

In the case of `Oc1nc2ccc(Cl)cc2c2nc(-c3ccco3)nn12`, the IC50 [1] is reported as 0.6 nM and the inhibition [2] is reported as 15%.

`Oc1nc2ccccc2c2nc(C(F)(F)F)nn12` showed an IC50 [3] greater than 1000 nM.
